According to US6784181B2, “Piperazine-containing compounds useful in the treatment of pain” (AstraZeneca AB, priority 1999, dated 2004):
Counter-ions that a name gives are not always drawn. Like-named read-outs stand apart in the source and are kept apart here.

Key:
MOUSE BRAIN = MOUSE BRAIN (Mus musculus, UniProt P32300); assay: Functional agonism mouse brain (EC50, % EMAX); assay type: biochemical
RAT BRAIN = RAT BRAIN (Rattus norvegicus, UniProt P33533); assay: Functional agonism rat brain (EC50, % EMAX); assay type: biochemical
RAT BRAIN, sequence (P33533 whole entry): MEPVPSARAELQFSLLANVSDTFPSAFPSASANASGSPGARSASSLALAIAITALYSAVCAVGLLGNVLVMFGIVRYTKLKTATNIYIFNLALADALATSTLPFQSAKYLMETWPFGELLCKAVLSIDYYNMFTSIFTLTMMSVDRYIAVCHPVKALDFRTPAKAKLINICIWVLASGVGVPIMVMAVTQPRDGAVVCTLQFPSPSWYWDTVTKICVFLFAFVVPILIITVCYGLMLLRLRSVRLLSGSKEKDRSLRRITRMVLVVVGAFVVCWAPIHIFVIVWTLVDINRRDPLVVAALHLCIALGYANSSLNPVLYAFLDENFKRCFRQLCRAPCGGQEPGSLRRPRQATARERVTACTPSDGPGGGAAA

[1] = molecular target: T1, cloned human δ receptors (HDELTA) (Homo sapiens, UniProt P41143); assay: Binding assay, membranes of 293S cells expressing cloned human δ receptor
T1 construct: expressed in transfected cells; host or cells: human 293S cells (geneticin-selected), membranes
T1 sequence (P41143 whole entry): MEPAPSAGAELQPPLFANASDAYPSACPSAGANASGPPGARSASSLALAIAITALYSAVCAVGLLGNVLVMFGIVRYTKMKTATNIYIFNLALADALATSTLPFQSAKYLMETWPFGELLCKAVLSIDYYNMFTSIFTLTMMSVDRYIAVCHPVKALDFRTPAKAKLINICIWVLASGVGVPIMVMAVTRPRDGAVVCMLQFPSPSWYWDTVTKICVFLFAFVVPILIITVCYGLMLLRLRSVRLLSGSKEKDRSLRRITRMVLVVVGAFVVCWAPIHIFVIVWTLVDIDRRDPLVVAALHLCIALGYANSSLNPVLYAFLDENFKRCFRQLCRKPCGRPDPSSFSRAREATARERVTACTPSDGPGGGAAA

HDELTA = molecular target: T2, HDELTA (Homo sapiens, UniProt P41143); assay: Functional agonism HDELTA (EC50, % EMAX); assay type: biochemical
T2 construct: expressed in transfected cells
T2 sequence (P41143 whole entry): as above

[2] = Metabolic stability MLM (% remaining); assay type: in vitro ADME, mouse
[3] = Metabolic stability RLM (% remaining); assay type: in vitro ADME, rat
[4] = displacement of radioligand, human δ receptor membranes, read-out: HDELTA

MOUSE BRAIN, sequence (P32300 whole entry): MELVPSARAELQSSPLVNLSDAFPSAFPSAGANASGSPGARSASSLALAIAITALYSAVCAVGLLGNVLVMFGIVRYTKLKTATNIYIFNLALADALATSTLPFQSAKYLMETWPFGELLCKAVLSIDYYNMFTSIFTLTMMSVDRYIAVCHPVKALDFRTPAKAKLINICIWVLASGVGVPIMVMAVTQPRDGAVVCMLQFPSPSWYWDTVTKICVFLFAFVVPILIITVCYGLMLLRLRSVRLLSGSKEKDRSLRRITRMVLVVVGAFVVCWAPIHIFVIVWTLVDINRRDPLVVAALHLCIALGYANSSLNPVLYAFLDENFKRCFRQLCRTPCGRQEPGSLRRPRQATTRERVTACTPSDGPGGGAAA

| Structure (SMILES) | Emax (MOUSE BRAIN) | Emax (RAT BRAIN) | IC50 [1, 4] | Emax (HDELTA) | EC50 (HDELTA; read-out: HDELTA EC50) | EC50 (MOUSE BRAIN) | MOUSE BRAIN % EMAX (MOUSE BRAIN) | EC50 (RAT BRAIN) | RAT BRAIN % EMAX (RAT BRAIN) | HDELTA % EMAX (HDELTA) | MLM 10000 % rem. [2] | MLM 100000 % rem. [2] | RLM 10000 % rem. [3] | RLM 100000 % rem. [3] | IC50 [1] | EC50 (HDELTA) |
| --- | --- | --- | --- | --- | --- | --- | --- | --- | --- | --- | --- | --- | --- | --- | --- | --- |
| CCN(CC)C(=O)c1ccc(C(c2cccc3cccnc23)N2CCN(Cc3c[nH]cn3)CC2)cc1 (stereo not drawn) [Example 18, N,N-diethyl-4-[[4-(4-imidazolylmethyl)-1-piperazinyl](8-quinolinyl)methyl]benzamide Dihydrochloride] | 108% | 111% | 1.54 nM | 93.8% | 5.85 nM |  |  |  |  |  |  |  |  |  |  |  |
| CCN(CC)C(=O)c1ccc(C(c2cccc3cccnc23)N2CCN(Cc3nc[nH]n3)CC2)cc1.Cl.Cl (stereo not drawn) [Example 19, N,N-diethyl-4-[[4-(3-triazolylmethyl)-1-piperazinyl](8-quinolinyl)methyl]benzamide Dihydrochloride] |  |  | 18.8 nM |  | 85.2 nM | 1370 nM | 48.68% | 2810 nM | 56.35% | 97.88% |  |  |  |  |  |  |
| CCN(CC)C(=O)c1ccc(C(c2cccc3cccnc23)N2CCN(Cc3ncc[nH]3)CC2)cc1.Cl.Cl (stereo not drawn) [Example 17, N,N-diethyl-4-[[4-(2-imidazolylmethyl)-1-piperazinyl](8-quinolinyl)methyl]benzamide Dihydrochloride] | 92.5% | 106% |  | 95.7% |  |  |  |  |  |  | 0 % rem. | 21.5 % rem. | 5.5 % rem. | 75 % rem. | 1.09 nM | 3.03 nM |
| CCN(CC)C(=O)c1ccc(C(c2cccc3cccnc23)N2CCN(Cc3ccsc3)CC2)cc1 (stereo not drawn) [Example 13, N,N-diethyl-4-[[4-(3-thienylmethyl)-1-piperazinyl](8-quinolinyl)methyl]benzamide] | 113% | 112% |  | 101% |  |  |  |  |  |  | 1.667 % rem. | 71.667 % rem. | 10 % rem. | 62.667 % rem. | 1.03 nM | 1.44 nM |
| CCN(CC)C(=O)c1ccc(C(c2cccc3cccnc23)N2CCN(Cc3ccccn3)CC2)cc1 (stereo not drawn) [Example 12, N,N-diethyl-4-[[4-(2-pyridinylmethyl)-1-piperazinyl](8-quinolinyl)methyl]benzamide Dihydrochloride] | 91.3% | 106% |  | 97.7% |  |  |  |  |  |  | 0 % rem. | 53.5 % rem. | 21.5 % rem. | 66 % rem. | 0.692 nM | 0.76 nM |
| CCN(CC)C(=O)c1ccc(C(c2cccc3cccnc23)N2CCN(Cc3ccoc3)CC2)cc1 (stereo not drawn) [Example 15, N,N-diethyl-4-[[4-(3-furanylmethyl)-1-piperazinyl](8-quinolinyl)methyl]benzamide] | 110% | 109% |  | 89% |  |  |  |  |  |  | 0 % rem. | 68 % rem. | 10 % rem. | 86 % rem. | 0.787 nM | 0.79 nM |
| CCN(CC)C(=O)c1ccc(C(c2cccc3cccnc23)N2CCN(Cc3ccco3)CC2)cc1 (stereo not drawn) [Example 14, N,N-diethyl-4-[[4-(2-furanylmethyl)-1-piperazinyl](8-quinolinyl)methyl]benzamide] | 106% | 102% |  | 88.7% |  |  |  |  |  |  | 0 % rem. | 49 % rem. | 13.5 % rem. | 84.5 % rem. | 0.181 nM | 0.76 nM |
| CCN(CC)C(=O)c1ccc(C(c2cccc3cccnc23)N2CCN(Cc3cccs3)CC2)cc1.Cl.Cl (stereo not drawn) [Example 16, N,N-diethyl-4-[[4-(2-thiophenylmethyl)-1-piperazinyl](8-quinolinyl)methyl]benzamide Dihydrochloride] | 98.4% | 100% |  | 99.4% |  |  |  |  |  |  | 0.5 % rem. | 46.5 % rem. | 9.5 % rem. | 64.5 % rem. | 1.51 nM | 2.39 nM |
